From US10954216B2, “BMP-signal-inhibiting compound” (RIKEN, priority 2016, dated 2021)
pIC50: −log10 of the molar value. Where two headings read alike, the source gives them in different places.

Legend:
[1] = test system: BMP signal in MDA-231-D-BREFluc/Rluc cells; assay: BMP signal inhibitory effect (AlphaScreen SureFire SMAD1 p-Ser463/465, BMP-6 stimulation); assay type: cell-based
Procedure, shortened: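 MDA-231-D-BREFluc/Rluc cells were pretreated with compound for 2 h at 37° C, then stimulated with BMP-6 for 30 min. SMAD1 p-Ser463/465 in lysates was measured by AlphaScreen SureFire.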

[2] = target: human ALK2 (Homo sapiens (Human), UniProt Q04771); assay: ALK2 enzyme inhibitory effect (33P-ATP kinase assay, Reaction Biology); assay type: biochemical; details: ALK2, 10 μM ATP, 20 μM casein
human ALK2, sequence (Q04771 21-509): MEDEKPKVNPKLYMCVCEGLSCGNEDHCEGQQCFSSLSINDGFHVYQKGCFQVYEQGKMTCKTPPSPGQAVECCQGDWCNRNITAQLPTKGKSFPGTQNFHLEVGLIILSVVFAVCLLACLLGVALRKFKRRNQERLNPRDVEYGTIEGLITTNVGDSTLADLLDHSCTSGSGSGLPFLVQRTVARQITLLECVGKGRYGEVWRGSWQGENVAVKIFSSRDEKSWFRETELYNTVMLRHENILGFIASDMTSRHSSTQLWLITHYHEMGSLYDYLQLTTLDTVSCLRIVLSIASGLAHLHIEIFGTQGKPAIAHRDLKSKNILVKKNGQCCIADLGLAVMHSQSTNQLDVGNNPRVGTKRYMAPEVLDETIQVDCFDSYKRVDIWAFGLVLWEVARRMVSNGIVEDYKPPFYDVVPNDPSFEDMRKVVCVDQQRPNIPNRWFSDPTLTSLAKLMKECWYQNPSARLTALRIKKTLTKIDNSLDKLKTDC
From the text: (§1) ALK Enzyme Inhibitory Effect
(§2) Evaluation conditions were described in the following web pages. http://www.reactionbiology.corrilwebapps/site/Kinase_Assay_Protocol.aspx http://www.reactionbiology.corrilwebapps/site/KinaseDetail.aspx?page=Kinases&id=1

[3] = target: human ALK3 (Homo sapiens (Human), UniProt P36894); assay: ALK3 enzyme inhibitory effect (33P-ATP kinase assay, Reaction Biology); assay type: biochemical; details: for inhibition at 0.3 µM: read-out: Inhibition rate at 300 nM; for inhibition at 0.37 µM: ALK3, test compound 370 nM (asterisk footnote), read-out: inhibition rate at 370 nM
human ALK3, sequence (P36894 24-532): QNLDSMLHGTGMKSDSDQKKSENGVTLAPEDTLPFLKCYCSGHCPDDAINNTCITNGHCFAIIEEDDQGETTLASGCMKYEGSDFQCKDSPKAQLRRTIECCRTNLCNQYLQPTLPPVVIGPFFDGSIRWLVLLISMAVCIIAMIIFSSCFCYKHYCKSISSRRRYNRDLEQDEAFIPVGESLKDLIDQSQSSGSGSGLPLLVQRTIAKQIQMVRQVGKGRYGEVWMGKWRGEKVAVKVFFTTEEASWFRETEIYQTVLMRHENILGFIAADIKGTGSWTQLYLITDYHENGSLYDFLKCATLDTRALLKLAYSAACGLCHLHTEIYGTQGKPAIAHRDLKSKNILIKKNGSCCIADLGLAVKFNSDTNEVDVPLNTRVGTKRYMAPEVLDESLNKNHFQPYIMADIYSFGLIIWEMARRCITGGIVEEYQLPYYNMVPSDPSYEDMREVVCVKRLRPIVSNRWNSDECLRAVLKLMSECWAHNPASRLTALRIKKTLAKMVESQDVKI
From the text: as §1, §2

[4] = target: human ALK6 (Homo sapiens (Human), UniProt O00238); assay: ALK6 enzyme inhibitory effect (33P-ATP kinase assay, Reaction Biology); assay type: biochemical; details: for inhibition at 0.3 µM: read-out: Inhibition rate at 300 nM; for inhibition at 0.37 µM: ALK6, test compound 370 nM (asterisk footnote), read-out: inhibition rate at 370 nM
human ALK6, sequence (O00238 14-502): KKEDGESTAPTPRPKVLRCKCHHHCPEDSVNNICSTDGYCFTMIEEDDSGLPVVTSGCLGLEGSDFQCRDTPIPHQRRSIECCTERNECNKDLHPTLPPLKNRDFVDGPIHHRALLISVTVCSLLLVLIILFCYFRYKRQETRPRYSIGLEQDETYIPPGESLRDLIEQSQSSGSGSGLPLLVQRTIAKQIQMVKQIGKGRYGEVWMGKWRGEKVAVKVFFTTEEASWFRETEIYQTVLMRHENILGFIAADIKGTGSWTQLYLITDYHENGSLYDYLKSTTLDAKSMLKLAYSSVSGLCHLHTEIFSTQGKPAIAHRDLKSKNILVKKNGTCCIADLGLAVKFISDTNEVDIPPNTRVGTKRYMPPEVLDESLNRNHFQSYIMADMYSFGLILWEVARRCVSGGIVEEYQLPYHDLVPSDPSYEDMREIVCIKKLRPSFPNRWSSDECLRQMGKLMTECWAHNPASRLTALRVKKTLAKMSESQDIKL
From the text: as §1, §2

[5] = BMP-6 stimulated MDA-231-D-BREFluc/Rluc cells, phospho-SMAD1 AlphaScreen, read-out: IC50

Compound	pIC50 [1, 5]	pIC50 [2]	inhibition at 0.3 µM ([3]; ALK3, test compound 300 nM) [%]	inhibition at 0.3 µM ([4]; ALK6, test compound 300 nM) [%]	inhibition at 0.37 µM [3] [%]	inhibition at 0.37 µM [4] [%]	pIC50 [1]	inhibition at 0.3 µM [3] [%]	inhibition at 0.3 µM [4] [%]
CCn1cc(-c2ccnc(Nc3ccc(C(=O)N4CCN(c5ccc(F)cc5)CC4)cc3)n2)c(-c2cccnc2)n1 [Example 3, (4-((4-(1-ethyl-3-(pyridin-3-yl)-1H-pyrazol-4-yl)pyrimidin-2-yl)amino)phenyl)(4-(4-fluorophenyl)piperazin-1-yl)methanone]	7.57	7.62	52	79.6					
CCn1cc(-c2ccnc(Nc3ccc(N4CCN(C5COC5)CC4)cc3)n2)c(-c2cccnc2)n1 [Example 15, 4-(1-ethyl-3-(pyridin-3-yl)-1H-pyrazol-4-yl)-N-(4-(4-(oxetan-3-yl)piperazin-1-yl)phenyl)pyrimidin-2-amine]	7.52	7.35	51.4	90.2					
CCn1cc(-c2ccnc(Nc3ccc(N4CCN(CCOC)CC4)cc3)n2)c(-c2cccnc2)n1 [Example 17, 4-(1-ethyl-3-(pyridin-3-yl)-1H-pyrazol-4-yl)-N-(4-(4-(2-methoxyethyl)piperazin-1-yl)phenyl)pyrimidin-2-amine]	7.65	7.27	50.4	88					
CCn1cc(-c2ccnc(Nc3ccc(N4CCN(Cc5ccccc5)CC4)cc3)n2)c(-c2cccnc2)n1 [Example 19, N-(4-(4-benzylpiperazin-1-yl)phenyl)-4-(1-ethyl-3-(pyridin-3-yl)-1H-pyrazol-4-yl)pyrimidin-2-amine]	7.63	7.60	59.3	88.4					
CCn1cc(-c2ccnc(Nc3ccc(C(N)=O)cc3)n2)c(-c2cccnc2)n1 [Example 23, 4-((4-(1-Ethyl-3-(pyridin-3-yl)-1H-pyrazol-4-yl)pyrimidin-2-yl)amino)benzamide]	7.47		52						
CCn1cc(-c2ccnc(Nc3ccc(-c4cnn(CC(F)F)c4)cc3)n2)c(-c2cccnc2)n1 [Example 29, N-(4-(1-(2,2-Difluoroethyl)-1H-pyrazol-4-yl)phenyl)-4-(1-ethyl-3-(pyridin-3-yl)-1H-pyrazol-4-yl)pyrimidin-2-amine]	7.53		66.1	91.3					
CCn1cc(-c2ccnc(Nc3cccc(CN4CCOCC4)c3)n2)c(-c2cccnc2)n1 [Example 41, 4-(1-ethyl-3-(pyridin-3-yl)-1H-pyrazol-4-yl)-N-(3-(morpholinomethyl)phenyl)pyrimidin-2-amine]	7.92	7.17		78					
CCn1cc(-c2ccnc(Nc3ccc(N4CCCCC4)cc3)n2)c(-c2cccnc2)n1 [Example 49, 4-(1-ethyl-3-(pyridin-3-yl)-1H-pyrazol-4-yl)-N-(4-(piperidin-1-yl)phenyl)pyrimidin-2-amine]	7.55	7.17	52.2	91.6					
COCCn1cc(-c2ccnc(Nc3ccc(N4CCNCC4)cc3)n2)c(-c2cccnc2)n1 [Example 71, 4-(1-(2-methoxyethyl)-3-(pyridin-3-yl)-1H-pyrazol-4-yl)-N-(4-(piperazin-1-yl)phenyl)pyrimidin-2-amine]	7.64	7.40	48	76					
CCn1cc(-c2ccnc(Nc3ccc4c(c3)CCN(C(C)=O)C4)n2)c(-c2cccnc2)n1 [Example 75, 1-(6-((4-(1-Ethyl-3-(pyridin-3-yl)-1H-pyrazol-4-yl)pyrimidin-2-yl)amino)-3,4-dihydroisoquinolin-2(1H)-yl)ethan-1-one]	7.83	7.55	67.5	92.9					
c1cncc(-c2nn(C3COC3)cc2-c2ccnc(Nc3ccc(N4CCN(C5COC5)CC4)cc3)n2)c1 [Example 101, 4-(1-(oxetan-3-yl)-3-(pyridin-3-yl)-1H-pyrazol-4-yl)-N-(4-(4-(oxetan-3-yl)piperazin-1-yl)phenyl)pyrimidin-2-amine]	7.15	7.74			48.8	70.4			
CCn1cc(-c2ccnc(Nc3ccc(N4CCN(CC(C)(C)O)CC4)cc3)n2)c(-c2cccnc2)n1 [Example 104, 1-(4-(4-((4-(1-ethyl-3-(pyridin-3-yl)-1H-pyrazol-4-yl)pyrimidin-2-yl)amino)phenyl)piperazin-1-yl)-2-methylpropan-2-ol]	7.79	7.88	65.8	93.5					
CCn1cc(-c2ccnc(Nc3ccc(S(=O)(=O)N(C)C4CCN(C(C)C)CC4)cc3)n2)c(-c2cccnc2)n1 [Example 124]	7.80	7.21		87					
CCn1cc(-c2ccnc(Nc3ccc4c(c3)CCN(CCOC)C4)n2)c(-c2cccnc2)n1 [Example 126, N-(4-(1-Ethyl-3-(pyridin-3-yl)-1H-pyrazol-4-yl)pyrimidin-2-yl)-2-(2-methoxyethyl)-1,2,3,4-tetrahydroisoquinolin-6-amine]	8.40	7.82	59	85					
CN1CCN(c2ccc(Nc3nccc(-c4c[nH]nc4-c4cccnc4)n3)cc2)CC1 [Example 127, N-(4-(4-Methylpiperazin-1-yl)phenyl)-4-(3-(pyridin-3-yl)-1H-pyrazol-4-yl)pyrimidin-2-amine]	7.65				55.2	82.8			
CCn1cc(-c2ccnc(Nc3ccc4c(c3)CCN(C)C4)n2)c(-c2cccnc2)n1 [Example 129, N-(4-(1-Ethyl-3-(pyridin-3-yl)-1H-pyrazol-4-yl)pyrimidin-2-yl)-2-methyl-1,2,3,4-tetrahydroisoquinolin-6-amine]	8.74	7.48	55.7	92.2					
CC(C)(C)n1cc(-c2ccnc(Nc3ccc(N4CCNCC4)cc3)n2)c(-c2cccnc2)n1 [Example 135]	7.93	7.27	60	77					
c1cncc(-c2nn(C3COC3)cc2-c2ccnc(Nc3ccc(N4CCNCC4)cc3)n2)c1 [Example 137, 4-(1-(Oxetan-3-yl)-3-(pyridin-3-yl)-1H-pyrazol-4-yl)-N-(4-(piperazin-1-yl)phenyl)pyrimidin-2-amine]	7.45	7.34	47.9	85.3					
Fc1ccc(Cn2cc(-c3ccnc(Nc4ccc(N5CCNCC5)cc4)n3)c(-c3cccnc3)n2)cc1 [Example 139, 4-(1-(4-Fluorobenzyl)-3-(pyridin-3-yl)-1H-pyrazol-4-yl)-N-(4-(piperazin-1-yl)phenyl)pyrimidin-2-amine]	7.79		54.3	90.6					
c1ccc(CCn2cc(-c3ccnc(Nc4ccc(N5CCNCC5)cc4)n3)c(-c3cccnc3)n2)cc1 [Example 142, 4-(1-Phenethyl-3-(pyridin-3-yl)-1H-pyrazol-4-yl)-N-(4-(piperazin-1-yl)phenyl)pyrimidin-2-amine]	8.14	7.06	62.7	92.6					
CCn1cc(-c2ccnc(Nc3ccc(N4CC5CCC(C4)N5)cc3)n2)c(-c2cccnc2)n1 [Example 143, N-(4-(3,8-Diazabicyclo[3.2.1]octan-3-yl)phenyl)-4-(1-ethyl-3-(pyridin-3-yl)-1H-pyrazol-4-yl)pyrimidin-2-amine]							8.04	57	91
CCn1cc(-c2ccnc(Nc3ccc(N4CC5CCC(C4)N5)nc3)n2)c(-c2cccnc2)n1 [Example 144, N-(6-(3,8-Diazabicyclo[3.2.1]octan-3-yl)pyridin-3-yl)-4-(1-ethyl-3-(pyridin-3-yl)-1H-pyrazol-4-yl)pyrimidin-2-amine]							7.78	46	86
CCn1cc(-c2ccnc(Nc3ccc(N4CCNCC4)cc3)n2)c(-c2cncc(F)c2)n1 [Example 148, 4-(1-Ethyl-3-(5-fluoropyridin-3-yl)-1H-pyrazol-4-yl)-N-(4-(piperazin-1-yl)phenyl)pyrimidin-2-amine]	7.83	7.29		79.4					
CCn1cc(-c2ccnc(Nc3ccc(N4CCNCC4)cc3)n2)c(-c2cccnc2)n1 [Example 151, 4-(1-Ethyl-3-(pyridin-3-yl)-1H-pyrazol-4-yl)-N-(4-(piperazin-1-yl)phenyl)pyrimidin-2-amine]	8.44				56.1	93			
CCn1cc(-c2ccnc(Nc3ccc(C4CC5CCC(C4)N5)cc3)n2)c(-c2cccnc2)n1 (stereo not drawn) [Example 163, N-(4-(8-Azabicyclo [3.2.1]octan-3-yl)phenyl)-4-(1-ethyl-3-(pyridin-3-yl)-1H-pyrazol-4-yl)pyrimidin-2-amine]							8.31	47.6	96.2
CCn1cc(-c2ccnc(Nc3ccc(N4CCC(N)(CC)CC4)cc3)n2)c(-c2cccnc2)n1 [Example 177, N-(4-(4-Amino-4-ethylpiperidin-1-yl)phenyl)-4-(1-ethyl-3-(pyridin-3-yl)-1H-pyrazol-4-yl)pyrimidin-2-amine]	8.07	8.46							
